Experimental findings from patent publication US11400088B2, “Uses of compound in preparation of drugs for treating brain glioma” (BEIJING PEARL BIOTECHNOLOGY LIMITED LIABILITY COMPANY, priority 2015, dated 2022) are described below.

Assay [1] relates to PCDH-ZM1-2 expressing cells (U87). Briefly: MTT inhibition of glioblastoma cell proliferation, ZM1-2 fusion protein expressing cells. The settings on record: Homo sapiens, 72 hours, read-out: Inhibitory activities (IC50, μM) of tested compounds on cells. The format is cell-based. The source says:
(§1) First, a lentiviral vector PCDH (PCDH-EF1-MCS-T2A-Puro, SBI, product No.: CD510B-1, structure shown in FIG. 4) was used, and the nucleotide sequence as shown by SEQ ID NO: 7 or SEQ ID NO: 8 was cloned into the vector according to the instructions thereof, to prepare expression vectors which expressed fusion proteins respectively represented by SEQ ID NO: 3 and SEQ ID NO: 4. The expression vectors were respectively named and marked as “PCDH-ZM1-2” and “PCDH-ZM2-2”. Then, a viral packaging plasmid (SBI, product No. LV500A-1) was used to co-infect 293T cells with one of the vectors to prepare a lentivirus. The same method was performed to package the lentiviral vector PCDH and co-infect 293T cells, to prepare a lentivirus with the blank vector, which was named as “PCDH-blank”.
(§2) The U87 cells were infected with any of the lentiviruses as prepared above and screened by applying puromycin (0.5 μg/mL for screening, and 0.2 μg/mL for maintenance) to establish cell models which stably expressed the fusion proteins. The cell models were verified for the expression of the fusion proteins and the transcription of the fusion genes by immunoblotting and reverse transcription PCR, and cell lines which stably expressed fusion proteins ZM1-2 and ZM2-2 respectively were obtained finally and named as “PCDH-ZM1-2 expressing cells” and “PCDH-ZM2-2 expressing cells” respectively. Similarly, U87 cells were infected with the lentivirus PCDH-blank with the blank vector to obtain “PCDH-blank expressing cells” as a blank reference.
(§3) Those U87 cells which were cultured in a large dish and were in a logarithmic stage were washed once with sterile PBS, and then digested with 0.25% trypsin for 2 min. After all cells were digested to detach, complete DMEM medium containing 10% fetal bovine serum (FBS) was used to stop the digestion. The cells were counted and the cell concentration was adjusted to 20,000 cells/ml. Then, the cells were seeded into a Corning 96-well plate (2,000 cells/well) using a multi-channel pipette, and incubated in a 5% CO2 incubator at 37° C. for 24 hours. The compounds to be tested (crizotinib and the compounds represented by formulas A to H) were respectively dissolved in DMSO to prepare stock solutions, and then the stock solutions and the complete medium were used to prepare solutions with different concentrations of medicaments (0, 5, 10, 20, 40, 60, 80, 100 μM). The cells were incubated in the incubator for additional 72 hours, and then 20 μl of 3-(4,5-dimethylthiazole-2)-2,5-diphenyl tetrazolium bromide (MTT) was added into each well. After 1-3 hours in the incubator, the absorbance at 490 nm was determined using a microplate reader. The inhibition rate corresponding to each concentration was calculated, and the value of IC50 was calculated with GraphPad software.

Assay [2] relates to PCDH-ZM2-2 expressing cells (U87). As to the kind of experiment: MTT inhibition of glioblastoma cell proliferation, ZM2-2 fusion protein expressing cells. The format is cell-based. The settings on record: Homo sapiens, 72 hours, read-out: Inhibitory activities (IC50, μM) of tested compounds on cells.
Description: as §1, §2, §3

Assay [3] has as its system human glioma cell line U87. As to the kind of experiment: MTT inhibition of glioblastoma cell proliferation, U87 initial cells. The conditions noted are these: 72 hours, read-out: Inhibitory activities (IC50, μM) of tested compounds on cells. Type of assay: cell-based. The protocol: The compound represented by formula A and crizotinib as well as compounds represented by formulas B to H that respectively have a structure similar to the structure of formula A were employed to carry out the experiment of testing the activity of inhibiting glioblastoma cell proliferation.
as §2, §3

Assay [4] concerns PCDH-blank expressing cells (U87). As to the kind of experiment: MTT inhibition of glioblastoma cell proliferation, blank reference cells. Type of assay: cell-based. The settings on record: Homo sapiens, U-87 MG, 72 hours, read-out: Inhibitory activities (IC50, μM) of tested compounds on cells.
Description: as §1, §2, §3

The subject of assay [5] is PCDH-blank expressing cells. As to the kind of experiment: Intracranial tumor model, survival, vector mice (2). The format is in vivo, nude mice. The conditions noted are these: 50 mg/KG weight/day by gavage, over 6 weeks, FIG. 6. As to the method: (§4) First, a tumor-bearing mouse model was established. “PCDH-blank expressing cells” and “PCDH-ZM2-2 expressing cells” prepared in Example 4 were prepared into suspensions of 10^5 cells/5 μl with PBS respectively. Nude mice sterilized with 75% ethanol were inoculated with […] the cell suspensions. The cell inoculation position (2 mm away on the right side of anterior fontanel, and 2 mm backward) was determined using a brain stereotaxic apparatus for mouse; the injection depth was 3.5 mm and then elevated by 0.6 mm; and 5 μl of cell solutions respectively was injected to each mouse. After injection, the mice were kept still for 1 min, and then received a conventional skin closure. After intracranial tumors were observed, the tumor-bearing mice obtained with the “PCDH-blank expressing cells” were named as “vector mice (2)”, and the tumor-bearing mice obtained with the “PCDH-ZM2-2 expressing cells” were named as “ZM2-2 mice (2)”.
(§5) 8 Vector mice (2) and 8 ZM2-2 mice (2) were respectively administered with the compound represented by the formula A at a dose of 50 mg/KG weight/day. The compound was administrated once a day by gavage. At the same time, another group of 8 ZM2-2 mice (2) were given with normal saline, as a control group. The experiment lasted for over 6 weeks.

In assay [6] the test system is PCDH-ZM2-2 expressing cells. As to the kind of experiment: Inhibition of subcutaneous tumor growth in ZM2-2 mice (1). The format is in vivo, BALB/c (nu/nu) nude mice. The settings on record: 10 mg/KG/day by gavage, vs normal saline, FIG. 5. As to the method:
First, a tumor-bearing mouse model was established. BALB/c (nu/nu) maternal nude mice, aged 6-8 weeks, with a weight of about 16-18 g were purchased from Vital River. “PCDH-blank expressing cells” and “PCDH-ZM2-2 expressing cells” prepared in Example 4 were prepared into suspensions of 10^7 cells/ml with PBS respectively. Nude mice sterilized with 75% ethanol were subcutaneously injected with 100 μl of the cell suspensions at the right scapular area, in which the PCDH-blank expressing cells were injected into seven nude mice, and PCDH-ZM2-2 expressing cells were injected into 21 nude mice. […] The tumor size and variations in mouse weight were measured twice a week. […]
When the tumors grew to have a volume of about 100 mm^3, the ZM2-2 mice (1) were divided into three groups according to mean tumor size, including a group of 7 mice which were administered with the compound represented by formula A, a group of 7 mice which were administered with crizotinib, and a control group of 7 mice. […] The tumor size and variations in mouse weight were measured twice a week. The tumor diameter was measured with a vernier caliper, and the equation for calculating tumor volume was: tumor volume=0.5*Length*Width^2.

Assay [7] relates to PCDH-ZM2-2 expressing cells. Briefly: Intracranial tumor model, survival and brain MRI, ZM2-2 mice (2). The format is in vivo, nude mice. As to the method: as §4, §5
The brains of ZM2-2 mice (2) given with the compound represented by formula A were detected by nuclear magnetic resonance imaging on the 16th day after the compound represented by formula A was administered for the first time. […] See results in panel 7C.
Another 8 ZM2-2 mice (2) were also administered with the compound represented by formula A at a dose of 50 mg/KG weight/day. The compound was administrated once a day by gavage. Then, the compound administration was stopped on the 16th day after the first administration, and the brains were detected through nuclear magnetic resonance imaging on the 10th day after the compound withdrawal. […] Results are shown in panel 7D.

With `C[C@@H](Oc1cc(-c2cnn(C3CCNCC3)c2)cnc1N)c1c(Cl)ccc(F)c1Cl` [Crizotinib], the IC50 is 8.26 µM in assay [1], 9.76 µM in assay [2], 2.99 µM in assay [3] and 3.27 µM in assay [4].
As to `Cn1cc2cc(C(F)(F)c3nnc4ccc(-c5cnn(C6CC6)c5)nn34)c(F)cc2n1` [Formula A], the IC50 in assay [1] turned out to be 1.34 µM; in assay [2] it was 1.83 µM; in assay [3], 3.51 µM; in assay [4] it was 2.85 µM. Further, in assay [5], the survival of mice entry was “all survived”. Further, in assay [6], the “growth of tumors (tumor volume)” value is on record as “significantly inhibit the growth of tumors”. The “intracranial tumor growth after compound withdrawal by nuclear magnetic resonance imaging” value in assay [7] (50 mg/KG weight/day stopped on 16th day, imaged 10th day after withdrawal, panel 7D) is “resumed rapid growth”. Also, in assay [7] (50 mg/KG weight/day, 16th day after first administration, panel 7C), the “intracranial tumor size by nuclear magnetic resonance imaging” value was “obviously became smaller”. Further, the “survival time of mice” value in assay [7] (intracranial, 50 mg/KG weight/day by gavage, over 6 weeks, FIG. 6) is “obviously prolonged the survival time”.
On to `CNC(=O)c1c(F)cc(-c2ccc3nnc(C(F)(F)c4cc5cn(C)nc5cc4F)n3n2)cc1F` [Formula B], for which the IC50 in assay [1] was 7.63 µM; in assay [2], 5.59 µM; in assay [3] it was 8.15 µM; in assay [4], 6.02 µM.
Consider `Cn1cc2cc(C(F)(F)c3nnc4ccc(-c5ccc(NC(=O)C6CC6)c(F)c5)nn34)c(F)cc2n1` [Formula C], for which the IC50 in assay [1] amounted to 9.45 µM; in assay [2], 12.8 µM; in assay [3], 4.78 µM; in assay [4], 5.79 µM.
Consider `Cn1cc(-c2ccc3nnc(C(F)(F)c4cc5cn(C)nc5cc4F)n3n2)cn1` [Formula D], for which the IC50 in assay [1] was found to be 5.22 µM; in assay [2] it was 7.21 µM; in assay [3], 5.56 µM; in assay [4], 4.93 µM.
Taken in the same sequence, the figures for `CC(C)n1cc(-c2ccc3nnc(C(F)(F)c4cc5cn(C)nc5cc4F)n3n2)cn1` [Formula E] were 32.6 µM, 21.9 µM, 17.2 µM and 21.6 µM.
For the molecule `Cn1cc2cc(C(F)(F)c3nnc4ccc(-c5cnn(C6CC6)c5)cn34)c(F)cc2n1` [Formula F], the IC50 is 90.3 µM in assay [1], 125 µM in assay [2], 64.4 µM in assay [3] and 58.8 µM in assay [4].
On to `Cn1cc2cc(C(F)(F)c3nnc4ncc(-c5cnn(C6CC6)c5)cn34)c(F)cc2n1` [Formula G], for which the IC50 in assay [1] was determined as 6.75 µM; in assay [2], 15.2 µM; in assay [3] it was 9.07 µM; in assay [4], 9.25 µM.
As for `Nc1nc2cc(F)c(Cc3nnc4ccc(-c5cnn(C6CC6)c5)nn34)cc2s1` [Formula H], the IC50 in assay [1] was found to be 23.3 µM; in assay [2] it was 45.1 µM; in assay [3], 25.4 µM; in assay [4] it was 19.4 µM.

Usually IC50 stands for the concentration that inhibits the measured activity by half.
